# Measurements published in US20150105252A1, “SUBSTITUTED PYRAZOLES AS HERBICIDES” (E I DU PONT DE NEMOURS AND COMPANY, priority 2013, published 2015).
# Tests used:
# morningglory = assay: Test A postemergence; type: in vivo, Ipomoea spp.; conditions: Postemergence
# Method in brief: (§1)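 Injury readout: eye-scored versus untreated controls, 0 to 100. Exposure period: ~10 days, greenhouse. Application: soil-directed spray over sown seed (pre) or spray on seedlings 2–10 cm tall with one or two leaves (post), compound carried in non-phytotoxic solvent including surfactant.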
# corn = assay: Test C postemergence; type: in vivo, Zea mays
# Method in brief: (§2)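 Seeds sown in loam–sand blend and treated preemergence with test chemicals in non-phytotoxic solvent with surfactant; postemergence plants in peat-based medium, treated at 2–18 cm (1- to 4-leaf stage). Greenhouse 13 to 15 days, then visual rating versus controls, 0 (no effect) to 100 (complete control).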
# ragweed [1] = assay: Test C preemergence; type: in vivo, Ambrosia elation; conditions: preemergence
# Method in brief: as §2
# waterhemp = assay: Test C preemergence; type: in vivo, Amaranthus rudis; conditions: preemergence
# Method in brief: as §2
# ryegrass, Italian = assay: Test C postemergence; type: in vivo, Lolium multiflorum; conditions: postemergence
# Method in brief: as §2
# oilseed rape = assay: Test C postemergence; type: in vivo, Brassica napus; conditions: postemergence
# Method in brief: as §2
# velvetleaf = assay: Test C preemergence; type: in vivo, Abutilon theophrasti; conditions: preemergence
# Method in brief: as §2
# crabgrass, large = assay: Test A preemergence; type: in vivo, Digitaria sanguinalis; conditions: preemergence
# Method in brief: as §1
# ragweed [2] = assay: Test C postemergence; type: in vivo, Ambrosia elation; conditions: postemergence
# Method in brief: as §2
# barnyardgrass = assay: Test C preemergence; type: in vivo, Echinochloa crus-galli; conditions: preemergence
# Method in brief: as §2
# nutsedge, yellow = assay: Test C postemergence; type: in vivo, Cyperus esculentus
# Method in brief: as §2
# soybean [3] = assay: Test C preemergence; type: in vivo, Glycine max; conditions: preemergence
# Method in brief: as §2
# soybean [4] = assay: Test C postemergence; type: in vivo, Glycine max; conditions: postemergence
# Method in brief: as §2
# wheat = assay: Test A preemergence; type: in vivo, Triticum aestivum; conditions: preemergence
# Method in brief: as §1
# foxtail, giant = assay: Test C postemergence; type: in vivo, Setaria faberii
# Method in brief: as §2
# johnsongrass = assay: Test C postemergence; type: in vivo, Sorghum halepense
# Method in brief: as §2
# [5] = Postemergence, 31 g ai/ha, visually evaluated after 13 to 15 days
# [6] = postemergence, 62 g ai/ha, scale 0 to 100
# [7] = postemergence, 250 g ai/ha, scale 0 to 100 (0 no effect, 100 complete control)
# [8] = postemergence, 125 g ai/ha, scale 0 to 100, 0 no effect, 100 complete control
# [9] = 31 g ai/ha, visual rating, scale 0 to 100 (0 no effect, 100 complete control), 13 to 15 days
# [10] = 62 g ai/ha, scale 0 to 100 (0 no effect, 100 complete control), 13 to 15 days
# [11] = 125 g ai/ha, 13 to 15 days, scale 0 to 100, 0 = no effect, 100 = complete control
# [12] = 250 g ai/ha, scale 0 to 100, 0 is no effect, 100 is complete control
# [13] = 250 g ai/ha, scale 0 to 100 (0 no effect, 100 complete control)
# [14] = 125 g ai/ha, scale 0 to 100, 0 no effect, 100 complete control
# [15] = 125 g ai/ha, visual injury approx. 10 days after treatment
# [16] = 500 g ai/ha, visual injury after approx. 10 days, 0 to 100 scale (0 no effect, 100 complete control)
compound,measurement,setting,value
CCc1cc(C(=O)NC2CC2)nn1Cc1ccnc(OCC(F)(F)F)c1 [Compound 200],Morningglory plant response rating,"morningglory; 125 g ai/ha, 0 to 100 scale, 0 no effect, 100 complete control",100
same,Morningglory plant response rating,"morningglory; 500 g ai/ha, 0 to 100 scale (0 no effect, 100 complete control)",100
same,"Plant response rating (scale of 0 to 100 where 0 is no effect and 100 is complete control), Corn",corn; [5],5
same,Corn plant response rating,corn; [6],5
same,"Plant response rating, Corn",corn; [7],20
same,"Plant response rating, Corn",corn; [8],10
same,Ragweed plant response rating,ragweed [1]; [9],5
same,Ragweed plant response rating,ragweed [1]; [10],35
same,"Plant response rating, Ragweed",ragweed [1]; [11],70
same,Ragweed plant response rating,ragweed [1]; [12],85
same,Waterhemp plant response rating,waterhemp; [9],100
same,Waterhemp plant response rating,waterhemp; [10],100
same,"Plant response rating, Waterhemp",waterhemp; [11],100
same,Waterhemp plant response rating,waterhemp; [12],100
same,"Plant response rating, Ryegrass, Italian","ryegrass, Italian; [13]",15
same,"Plant response rating, Ryegrass, Italian","ryegrass, Italian; [14]",15
same,Oilseed Rape plant response rating,"oilseed rape; 62 g ai/ha, scale 0 to 100",30
same,"Plant response rating, Oilseed Rape",oilseed rape; [13],60
same,"Plant response rating, Oilseed Rape",oilseed rape; [14],60
same,Velvetleaf plant response rating,velvetleaf; [9],40
same,Velvetleaf plant response rating,velvetleaf; [10],70
same,"Plant response rating, Velvetleaf",velvetleaf; [11],100
same,Velvetleaf plant response rating,velvetleaf; [12],100
same,"Crabgrass, Large plant response rating (0 to 100 scale)","crabgrass, large; [15]",100
same,"Crabgrass, Large plant response rating","crabgrass, large; [16]",100
same,"Plant response rating, Ragweed",ragweed [2]; [13],45
same,"Plant response rating, Ragweed",ragweed [2]; [14],45
same,Barnyardgrass plant response rating,barnyardgrass; [9],45
same,Barnyardgrass plant response rating,barnyardgrass; [10],70
same,"Plant response rating, Barnyardgrass",barnyardgrass; [11],90
same,Barnyardgrass plant response rating,barnyardgrass; [12],98
same,"Plant response rating (scale of 0 to 100 where 0 is no effect and 100 is complete control), Nutsedge, Yellow","nutsedge, yellow; [5]",0
same,"Nutsedge, Yellow plant response rating","nutsedge, yellow; [6]",0
same,"Plant response rating, Nutsedge, Yellow","nutsedge, yellow; [7]",10
same,"Plant response rating, Nutsedge, Yellow","nutsedge, yellow; [8]",5
same,Soybean plant response rating,soybean [3]; [9],50
same,Soybean plant response rating,soybean [3]; [10],70
same,"Plant response rating, Soybean",soybean [3]; [11],70
same,Soybean plant response rating,soybean [3]; [12],85
same,"Plant response rating, Soybean",soybean [4]; [13],90
same,Soybean plant response rating,soybean [4]; [14],90
same,Wheat plant response rating (0 to 100 scale),wheat; [15],0
same,Wheat plant response rating,wheat; [16],100
same,"Plant response rating (scale of 0 to 100 where 0 is no effect and 100 is complete control), Foxtail, Giant","foxtail, giant; [5]",5
same,"Foxtail, Giant plant response rating","foxtail, giant; [6]",10
same,"Plant response rating, Foxtail, Giant","foxtail, giant; [7]",15
same,"Plant response rating, Foxtail, Giant","foxtail, giant; [8]",15
same,"Plant response rating (scale of 0 to 100 where 0 is no effect and 100 is complete control), Johnsongrass",johnsongrass; [5],10
same,Johnsongrass plant response rating,johnsongrass; [6],10
same,"Plant response rating, Johnsongrass",johnsongrass; [7],20
same,"Plant response rating, Johnsongrass",johnsongrass; [8],10
